The test system of this assay is monoclonal human anti-DNP antibody (mAb). Briefly: BLI covalent labeling kinetics assay on IgG Fc capture probes, mAb. In kind it is binding. Here is the method: Kinetic assays to characterize the second order rate constant (kinact/KI) describing the CIR+Ab labeling reaction involved incubating increasing concentrations of CIR 3 or CIR 5 with a fixed concentration (75 nM) of anti-DNP mmAb in solution, for different periods of time. PSMA binding to CIR-Ab complexes increases the total mass associated with the probe surface leading to signal increases (nm shift). CIR 3 (500 nM) and 75 nM of either mmAb or mAb (AcroBiosystems Catalog #DNP-M2) was reacted in 1× Kinetics Buffer (ForteBio) for four hours prior to the experiment. IgG Fc capture (ProG) probes from ForteBio were placed in 1× Kinetics Buffer for 20 minutes prior to the experiment for wetting. The experiment was conducted using an Octet Red96 (ForteBio), where the acquisition rate was set to 5 Hz and the temperature was held at 25° C. The plate shaker setting was 1000 RPM. A volume of 250 μL of each solution was loaded onto a black flat-bottom 96-well plate (Grenier). The experiment began by placing the ProG probes in 1×Kinetics Buffer for four minutes to establish a baseline. Next, the probes were placed into the CIR 3 and anti-DNP antibody reaction mixture to load the covalent complex (CIR-Ab) onto the probe. Next, the probes were placed in a solution of 5 mM DNP-glycine competitor in 1×Kinetics Buffer in order to disrupt any non-covalent or non-specific binding. The baseline was re-established by then placing the probes in 1× Kinetics Buffer for 0.5 minutes. To measure PSMA association, the probes were placed in a solution of 500 nM human PSMA protein in 1× Kinetics Buffer for 10 minutes. The probes were then placed in 1×Kinetics Buffer for 10 minutes to measure dissociation. The raw nm shift signal for the association and dissociation step obtained by the Octet Red96 was first baselined to the beginning of the association step (t=0 second) by subtracting the association signal at t=0 from the measured signal at each time point. The Kd was determined by fitting both the association and dissociation curves using the ‘association then dissociation’ binding model in GraphPad Prism 8. The experiment was repeated once for a total of two replicates.
The specific labelling of an antibody by a CIR occurs via a two-step mechanism. In the first step, the CIR binds to the antibody via its ABD and forms a reversible complex. […] This second order rate constant was determined by monitoring covalent product (CIR-Ab) formation as a function of time via BLI using IgG Fc capture probes (note: a non-specific labeling reaction occurs independent of binding to the DNP binding site with any biological nucleophile and follows second order kinetics without saturation). […]

For `O=C(O)CC[C@H](NC(=O)N[C@@H](CCCCNC(=O)NCCOCCOCCOCCOCCOCCOCCOCCOC(=O)n1cnc(CCNC(=O)CNc2ccc([N+](=O)[O-])cc2[N+](=O)[O-])c1)C(=O)O)C(=O)O` [CIR 3], the “covalent labeling of anti-DNP mAb” value (75 nM mAb, 500 nM CIR 3) is listed as “selectively covalently modify mAb albeit with modestly slower kinetics”. Also, where the note is “mAb”, the “Kinact/Kl ^c” value turned out to be 1730 ± 1040 M⁻¹ s⁻¹. For the same compound, the “Kinact^c” value (mAb, 75 nM antibody) was 2.0 × 10^−4 ± 0 s^−1. Besides, the Ki (mAb, read-out: Kl ^c) came to 160 ± 70 nM.

The values above are taken from patent publication US11827624B2, “Covalent immune recruiter compounds for immune cell recognition and associated uses” (McMaster University, priority 2020, dated 2023).
